The values below are quoted from earlier work in US20130224131A1, “4-AMIDINO BENZYLAMINES FOR COSMETIC AND/OR DERMATOLOGICAL USE” (DSM IP ASSETS B.V., priority 2007, published 2013).

The target of this series is urokinase (Homo sapiens, UniProt P00749). The note with it: qualitative statement, described in WO 01/96286.
On to `N=C(N)c1ccc(CNC(=O)[C@H](CCCCN)NC(=O)[C@@H](CO)NS(=O)(=O)Cc2ccccc2)cc1` [benzylsulfonyl-D-Ser-Lys-(4-amidino-benzylamide)], for which the urokinase-inhibiting activity entry was “potent and highly specific urokinase-inhibiting activity”. Take `N=C(N)c1ccc(CNC(=O)CNC(=O)[C@@H](CO)NS(=O)(=O)Cc2ccccc2)cc1` [benzylsulfonyl-D-Ser-Gly-4-amidino-benzylamide]: the urokinase-inhibiting activity entry is “potent and highly specific urokinase-inhibiting activity”. Take `N=C(N)c1ccc(CNC(=O)C(CCc2ccccc2)NC(=O)[C@@H](CO)NS(=O)(=O)Cc2ccccc2)cc1` (stereo partly drawn) [benzylsulfonyl-D-Ser-homoPhe-(4-amidino-benzylamide)]: the urokinase-inhibiting activity entry is “potent and highly specific urokinase-inhibiting activity”.
